This is an account of results in ChEMBL document CHEMBL1150186, “Chemical studies on Mexican plants used in traditional medicine, XV. Sesquiterpene evoninoate alkaloids from Hippocratea excelsa” (J Nat Prod, 1990).

For data set [1], the system named is MCF7. In words: Cytotoxicity against human MCF7 cells. It counts as functional. The settings on record: read-out: ED50 (the source's name).
Data set [2] in a line: Cytotoxicity against mouse 9PS cells. The settings on record: read-out: ED50 (the source's name). It counts as functional.
The subject of data set [3] is HT-29. Put plainly: Cytotoxicity against human HT-29 cells. Format: functional. The settings on record: read-out: ED50 (the source's name).
Data set [4] concerns A549. In words: Cytotoxicity against human A549 cells. The settings on record: read-out: ED50 (the source's name). It counts as functional.
A short description of data set [5]: Toxicity against brine shrimp. Format: organism-based. The settings on record: artemia, in vivo.

≈ marks a conversion by molar mass, not a printed value.

Take `CC(=O)OC[C@]12[C@H](OC(C)=O)[C@H](OC(C)=O)C3C(OC(C)=O)[C@@]14O[C@@]3(C)COC(=O)c1cccnc1[C@@H](C)[C@H](C)C(=O)OC([C@H](OC(=O)c1ccc(=O)n(C)c1)[C@@H]2OC(=O)c1ccccc1)[C@]4(C)O` (stereo not given in full) [HIPPOCRATEINE]: the EC50 in data set [1] was above 10 µg/mL; in data set [2] it was 0.185 µg/mL (≈ 0.193 µM); in data set [3] it was above 10 µg/mL; in data set [4], above 10 µg/mL. For the same molecule, the LC50 in data set [5] is 212 µg/mL (≈ 221 µM).
